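Cells were grown in 96-well plates and exposed to each compound for 48 hours at five concentrations; endpoints were interpolated linearly between bracketing concentrations, or set to the highest concentration if not reached. TGI is the concentration that stops growth completely.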
What was measured:
Test in all cases: NCI anticancer screen, dose series, 48 h
[1] = system: MOLT-4 leukemia
[2] = system: EKVX NSCLC
[3] = system: IGROV1 ovarian
[4] = system: SNB-19 CNS
[5] = system: HOP-62 NSCLC
[6] = system: NCI/ADR-RES ovarian
[7] = system: SF-295 CNS
[8] = system: MDA-N
[9] = system: T-47D breast
[10] = system: MALME-3M melanoma
[11] = system: SF-539 CNS
[12] = system: 786-0 renal
[13] = system: NCI-H226 lung
[14] = system: DU-145 prostate
[15] = system: NCI-H460 lung
[16] = system: UO-31 renal
[17] = system: SW-620 colon
[18] = system: HCT-116 colon
[19] = system: ACHN renal
[20] = system: CCRF-CEM leukemia
[21] = system: LOX IMVI melanoma
[22] = system: SNB-75 CNS
[23] = system: RPMI-8226 leukemia
[24] = system: OVCAR-3 ovarian
[25] = system: SK-OV-3 ovarian
[26] = system: OVCAR-8 ovarian
[27] = system: MDA-MB-435
[28] = system: HL-60(TB) leukemia
[29] = system: SK-MEL-5 melanoma
[30] = system: M14 melanoma
[31] = system: HS 578T breast
[32] = system: MCF7 breast
[33] = system: BT-549 breast
[34] = system: HCT-15 colon
[35] = system: UACC-62 melanoma
[36] = system: MDA-MB-231 breast
[37] = system: K-562 leukemia
[38] = system: OVCAR-4 ovarian
[39] = system: U251 CNS
[40] = system: HCC-2998 colon
[41] = system: TK-10 renal
[42] = system: PC-3 prostate
[43] = system: OVCAR-5 ovarian
[44] = system: A549 NSCLC
[45] = system: RXF 393 renal
[46] = system: SK-MEL-2 melanoma
[47] = system: SF-268 CNS
[48] = system: SN12C renal
[49] = system: SK-MEL-28 melanoma
[50] = system: UACC-257 melanoma
[51] = system: COLO 205 colon
[52] = system: NCI-H522 lung
[53] = system: KM12 colon
[54] = system: A498 renal
[55] = system: CAKI-1 renal
[56] = system: HT29 colon
[57] = system: SR leukemia
[58] = system: NCI-H23 lung

**Q.** How did the TGI [1] turn out when `[N-]=[N+]=NC1OC(=O)C(Cl)=C1N=P(c1ccccc1)(c1ccccc1)c1ccccc1` (centres undefined) was run?
**A.** 8.72 µM

**Q.** What about the TGI [2] of the same compound?
**A.** > 10 µM

**Q.** And the TGI [3]?
**A.** > 10 µM

**Q.** And the TGI [4]?
**A.** > 10 µM

**Q.** And the TGI [5]?
**A.** > 10 µM

**Q.** And the TGI [6]?
**A.** > 10 µM

**Q.** And the TGI [7]?
**A.** > 10 µM

**Q.** And the TGI [8]?
**A.** > 10 µM

**Q.** What about the TGI [9] of the same compound?
**A.** > 10 µM

**Q.** What about the TGI [10] of the same compound?
**A.** > 10 µM

**Q.** And the TGI [11]?
**A.** > 10 µM

**Q.** What about the TGI [12] of the same compound?
**A.** > 10 µM

**Q.** And the TGI [13]?
**A.** > 10 µM

**Q.** And the TGI [14]?
**A.** > 10 µM

**Q.** And the TGI [15]?
**A.** > 10 µM

**Q.** And the TGI [16]?
**A.** > 10 µM

**Q.** And the TGI [17]?
**A.** > 10 µM

**Q.** What about the TGI [18] of the same compound?
**A.** > 10 µM

**Q.** And the TGI [19]?
**A.** > 10 µM

**Q.** What about the TGI [20] of the same compound?
**A.** > 10 µM

**Q.** And the TGI [21]?
**A.** > 10 µM

**Q.** And the TGI [22]?
**A.** > 10 µM

**Q.** What about the TGI [23] of the same compound?
**A.** 8.33 µM

**Q.** And the TGI [24]?
**A.** > 10 µM

**Q.** And the TGI [25]?
**A.** > 10 µM

**Q.** What about the TGI [26] of the same compound?
**A.** > 10 µM

**Q.** What about the TGI [27] of the same compound?
**A.** > 10 µM

**Q.** What about the TGI [28] of the same compound?
**A.** > 10 µM

**Q.** What about the TGI [29] of the same compound?
**A.** > 10 µM

**Q.** And the TGI [30]?
**A.** > 10 µM

**Q.** And the TGI [31]?
**A.** > 10 µM

**Q.** What about the TGI [32] of the same compound?
**A.** > 10 µM

**Q.** And the TGI [33]?
**A.** > 10 µM

**Q.** And the TGI [34]?
**A.** > 10 µM

**Q.** What about the TGI [35] of the same compound?
**A.** > 10 µM

**Q.** What about the TGI [36] of the same compound?
**A.** > 10 µM

**Q.** And the TGI [37]?
**A.** > 10 µM

**Q.** What about the TGI [38] of the same compound?
**A.** > 10 µM

**Q.** And the TGI [39]?
**A.** > 10 µM

**Q.** And the TGI [40]?
**A.** > 10 µM

**Q.** And the TGI [41]?
**A.** > 10 µM

**Q.** What about the TGI [42] of the same compound?
**A.** > 10 µM

**Q.** What about the TGI [43] of the same compound?
**A.** > 10 µM

**Q.** What about the TGI [44] of the same compound?
**A.** > 10 µM

**Q.** What about the TGI [45] of the same compound?
**A.** > 10 µM

**Q.** What about the TGI [46] of the same compound?
**A.** > 10 µM

**Q.** What about the TGI [47] of the same compound?
**A.** > 10 µM

**Q.** What about the TGI [48] of the same compound?
**A.** > 10 µM

**Q.** What about the TGI [49] of the same compound?
**A.** > 10 µM

**Q.** What about the TGI [50] of the same compound?
**A.** > 10 µM

**Q.** And the TGI [51]?
**A.** > 10 µM

**Q.** What about the TGI [52] of the same compound?
**A.** > 10 µM

**Q.** What about the TGI [53] of the same compound?
**A.** > 10 µM

**Q.** And the TGI [54]?
**A.** > 10 µM

**Q.** What about the TGI [55] of the same compound?
**A.** > 10 µM

**Q.** Which TGI [1] does the source give for `[O-][N+](=Nc1ccccc1CO)c1ccccc1CO` here?
**A.** > 100 µM

**Q.** And the TGI [2]?
**A.** > 100 µM

**Q.** What about the TGI [4] of the same compound?
**A.** > 100 µM

**Q.** And the TGI [56]?
**A.** > 100 µM

**Q.** What about the TGI [6] of the same compound?
**A.** > 100 µM

**Q.** And the TGI [8]?
**A.** > 100 µM

**Q.** And the TGI [9]?
**A.** > 100 µM

**Q.** What about the TGI [10] of the same compound?
**A.** > 100 µM

**Q.** What about the TGI [11] of the same compound?
**A.** > 100 µM

**Q.** What about the TGI [12] of the same compound?
**A.** > 100 µM

**Q.** What about the TGI [13] of the same compound?
**A.** > 100 µM

**Q.** What about the TGI [14] of the same compound?
**A.** > 100 µM

**Q.** What about the TGI [15] of the same compound?
**A.** > 100 µM

**Q.** And the TGI [16]?
**A.** > 100 µM

**Q.** What about the TGI [17] of the same compound?
**A.** > 100 µM

**Q.** What about the TGI [18] of the same compound?
**A.** > 100 µM

**Q.** And the TGI [57]?
**A.** > 100 µM

**Q.** What about the TGI [20] of the same compound?
**A.** > 100 µM

**Q.** And the TGI [21]?
**A.** > 100 µM

**Q.** What about the TGI [22] of the same compound?
**A.** > 100 µM

**Q.** What about the TGI [23] of the same compound?
**A.** > 100 µM

**Q.** What about the TGI [24] of the same compound?
**A.** > 100 µM

**Q.** What about the TGI [25] of the same compound?
**A.** > 100 µM

**Q.** What about the TGI [26] of the same compound?
**A.** > 100 µM

**Q.** And the TGI [27]?
**A.** > 100 µM

**Q.** What about the TGI [28] of the same compound?
**A.** > 100 µM

**Q.** What about the TGI [29] of the same compound?
**A.** > 100 µM

**Q.** What about the TGI [30] of the same compound?
**A.** > 100 µM

**Q.** What about the TGI [31] of the same compound?
**A.** > 100 µM

**Q.** What about the TGI [32] of the same compound?
**A.** > 100 µM

**Q.** And the TGI [33]?
**A.** > 100 µM

**Q.** And the TGI [34]?
**A.** > 100 µM

**Q.** And the TGI [35]?
**A.** > 100 µM

**Q.** What about the TGI [36] of the same compound?
**A.** > 100 µM

**Q.** And the TGI [37]?
**A.** > 100 µM

**Q.** What about the TGI [38] of the same compound?
**A.** > 100 µM

**Q.** What about the TGI [39] of the same compound?
**A.** > 100 µM

**Q.** And the TGI [40]?
**A.** > 100 µM

**Q.** What about the TGI [41] of the same compound?
**A.** > 100 µM

**Q.** And the TGI [42]?
**A.** > 100 µM

**Q.** And the TGI [43]?
**A.** > 100 µM

**Q.** And the TGI [44]?
**A.** > 100 µM

**Q.** What about the TGI [45] of the same compound?
**A.** > 100 µM

**Q.** And the TGI [58]?
**A.** > 100 µM

**Q.** And the TGI [46]?
**A.** > 100 µM

**Q.** What about the TGI [47] of the same compound?
**A.** > 100 µM

**Q.** What about the TGI [48] of the same compound?
**A.** > 100 µM

**Q.** What about the TGI [49] of the same compound?
**A.** > 100 µM

**Q.** What about the TGI [50] of the same compound?
**A.** > 100 µM

**Q.** What about the TGI [51] of the same compound?
**A.** > 100 µM

**Q.** And the TGI [52]?
**A.** > 100 µM

**Q.** What about the TGI [53] of the same compound?
**A.** > 100 µM

**Q.** What about the TGI [54] of the same compound?
**A.** > 100 µM

**Q.** What about the TGI [55] of the same compound?
**A.** > 100 µM

— PubChem BioAssay (NCI)
